Data from patent US4946838A, “Crystalline anhydrous aztreonam” (priority 1986, dated 1990).
“Also recorded” adds a separate entry of the source. Where two headings read alike, the source gives them in different places.

Tests used:
[1] = Powder properties (density, surface area, flowability); type: physicochemical; conditions: in words
[2] = Hydration (water content) of crystalline forms; type: physicochemical; conditions: for Hydration: in words
[3] = Intrinsic Dissolution Rate; type: physicochemical; conditions: in words
[4] = Differential Scanning Calorimetry (DSC), peak temperatures; type: physicochemical
[5] = Crystallinity and morphology (microscopy, X-ray diffraction); type: physicochemical
[6] = Hygroscopicity (Equilibrium Moisture Content and rate); type: physicochemical; conditions: for Hygroscopicity: Rate: in words
[7] = compared with α-form or simple salts; powder for reconstitution

Row | Structure (SMILES) | Density [1] | Flowability [1] | Surface Area [1] | Hydration, water content [2] | Hydration [2] | Intrinsic Dissolution Rate [3] | Morphology [5] | Crystallinity: X-ray diffraction [5] | Crystallinity: Microscopy [5] | Hygroscopicity: EMC (Equilibrium Moisture Content) [6] | Hygroscopicity: Rate [6] | other results
1 | C[C@H]1[C@H](NC(=O)/C(=N\OC(C)(C)C(=O)O)c2csc(N)n2)C(=O)N1S(=O)(=O)O [α-Form, [3S-[3α(Z),4β]]-3-[[(2-amino-4-thiazolyl)[(1-carboxy-1-methylethoxy)imino]acetyl]amino]-4-methyl-2-oxo-1-azetidinesulfonic acid] | low | poor | high | 7-14 % water | Hydrous | slow | needles or rods | crystalline | birefringent | 0-14% | rapid | DSC, peak temperature, exotherm ([4]; decomp.): 200 °C; DSC, peak temperature, endotherm ([4]; dehydration): 107 °C
2 | C[C@H]1[C@H](NC(=O)/C(=N\OC(C)(C)C(=O)O)c2csc(N)n2)C(=O)N1S(=O)(=O)O [β-Form, [3S-[3α(Z),4β]]-3-[[(2-amino-4-thiazolyl)[(1-carboxy-1-methylethoxy)imino]acetyl]amino]-4-methyl-2-oxo-1-azetidinesulfonic acid] | high | good | low | 0-1 % water | Anhydrous | fast | spiny fused spherulites | crystalline | birefringent | 0-3% | slow | Density ([1]; listed as β-form): dense; Hydration ([2]; listed as β-form): anhydrous; DSC, peak temperature, exotherm ([4]; decomp, when crystallized from absolute ethanol): 228 °; DSC, peak temperature, exotherm ([4]; decomp, when crystallized from absolute methanol): 238 °; DSC, endotherm ([4]; in words): none; Shelf life [7]: greater than that of the α-form, or for that matter simple salts of the compound; Hygroscopicity [6]: nonhygroscopic; also recorded: substantially non-hygroscopic; Hygroscopicity ([6]; listed as crystalline, anhydrous form): substantially non-hygroscopic
